Test results: patent publication EP4806445A1, “USE OF COMPOSITION FOR PREVENTING, ALLEVIATING OR TREATING DIABETIC KIDNEY DISEASE COMPRISING ZINC SALT AND CYCLO-HISPRO AS ACTIVE INGREDIENTS” (Novmetapharma Co., Ltd., priority 2023, dated 2025)

How the values were obtained:
Format in all cases: in vivo
KKAy mice [1] = experiment: Measurement of urine albumin (albuminuria) in diabetic kidney disease model; details: week 16 of administration; for albuminuria: 24-hour urine, losartan 20 mg/kg in drinking water, dapagliflozin 2 mg/kg, CycloZ 15 mg/kg oral daily, negative control 51.4; for decrease in albuminuria compared to the negative control group: same doses as E1
Method: Five-week-old KKay mice were purchased from Clea, Japan, and as a normal control group, five-week-old C57BL6/J mice were purchased from Daehan Bio Link Co., Ltd. Breeding was performed under constant conditions (temperature: 22±2 °C, relative humidity: 55±10%, circadian cycle: 12 hours), and Purina mouse diet was used as feed and distilled water was used as drinking water. Mice were used in the experiment after a one-week adaptation period following purchase. Lorsartan used in the examples below was purchased from […], and dapagliflozin was purchased from Betapahrma. Metabolic cages were prepared using products from Jeongdo B&P Co., Ltd. Isoflurane, which is necessary for anesthesia and dissection of mice, was purchased from Hana Pharm Co., Ltd., and the RC2 Rodent Circuit Controller Anesthesia System from Vetequip was prepared. Phosphate buffered saline (PBS) was purchased from Hyclone. The KKAy animal model is known to have 10-50 times higher proteinuria (albuminuria) than the db/db animal model, and is reported to show the most severe mesangial matrix expansion among all models. […] The normal control group and the negative control group were orally administered the same amount of distilled water daily. [Table 1] At week 16 of administration, 24-hour urine was collected using a metabolic cage and centrifuged at 2,000 rpm for 10 minutes to remove suspended solids. Albumin was measured with a DCA vantage analyzer (Siemens) and DCA® Microalbumin/Creatinine Urine Test cartridge (Siemens) using urine diluted 1/10 with distilled water.

KKAy mice [2] = experiment: ACR, drug administration from severe condition, CycloZ, losartan and/or sitagliptin (Example 4); details: week 9
Method: (§1) At week 11 of administration, 24-hour urine was collected using a metabolic cage and centrifuged at 1,000 rpm for 5 minutes to remove suspended solids. Albumin was measured with a DCA vantage analyzer (Siemens) and DCA® Microalbumin/Creatinine Urine Test cartridge (Siemens) using urine diluted 1/2 with distilled water. Creatinine was measured using undiluted urine and a mouse creatinine assay kit (Crystalchem). The measured albumin (mg/dL) value was divided by the creatinine (g/dL) value to derive the ACR (mg/g) value.
(§2) After breeding five-week-old KKAy mice of Example 1-1 for 6 weeks, urine was collected for 24 hours and ACR was measured using the same method as in Example 3-2. The groups were randomly divided as shown in Table 5 so that the average ACR values were the same, and then the drug was orally administered daily for 9 weeks from the age of 12 weeks as shown in Table 5. At this time, losartan was dissolved in drinking water to allow a daily intake of 20 mg/kg per subject, and the remaining drugs were orally administered daily.
At week 9 of administration, 24-hour urine was collected using a metabolic cage, and ACR was measured using the same method as in Example 3-2.

KKAy mice [3] = experiment: ACR, drug administration from severe condition, CycloZ and/or metformin (Example 5); details: week 12
Method: as §1
as §2, with “6” for “5”, “12” for “9”, “6.” for “5. At this time, losartan was dissolved in drinking water to allow a daily intake of 20 mg/kg per subject, and the remaining drugs were orally administered daily.”
At week 12 of administration, 24-hour urine was collected using a metabolic cage, and ACR was measured using the same method as in Example 3-2.

KKAy mice [4] = experiment: ACR, drug administration from mild condition (Example 3-1/3-2); details: administration from mild stage, week 11
Method: Five-week-old KKAy mice of Example 1-1 were pre-bred for one week and then divided into groups as shown in Table 1 so that the average body weights were the same. The control group was orally administered distilled water for 11 weeks, while Group 1 was orally administered 15 mg/kg of CycloZ, Group 2 was orally administered 10 mg/kg of sitagliptin, and Group 3 was orally administered 10 mg/kg of sitagliptin + 15 mg/kg of CycloZ daily for the same period.
as §1

KKAy mice [5] = experiment: ACR, drug administration from severe condition, CycloZ and/or sitagliptin (Example 3-3/3-4); details: week 11
Method: as §1
as §2, with “4” for “5”, “11” for “9”, “4.” for “5. At this time, losartan was dissolved in drinking water to allow a daily intake of 20 mg/kg per subject, and the remaining drugs were orally administered daily.”
At week 11 of administration, 24-hour urine was collected using a metabolic cage, and ACR was measured using the same method as in Example 3-2.

[6] = administration from severe stage

CCCCc1nc(Cl)c(CO)n1Cc1ccc(-c2ccccc2-c2nn[nH]n2)cc1 [Losartan, losartan]
albuminuria (KKAy mice [1]): 39.3 mg/dL | decrease in albuminuria compared to the negative control group (KKAy mice [1]): 23.5% | ACR (KKAy mice [2]; administration from severe stage (age 12 weeks), CycloZ 15 mg/kg, losartan 20 mg/kg in drinking water, sitagliptin 10 mg/kg, negative control 7,118): 7,158 mg/g | effect on alleviating ACR (result in words) (KKAy mice [2]; [6]): did not show a significant effect on alleviating ACR

CCOc1ccc(Cc2cc([C@@H]3O[C@H](CO)[C@@H](O)[C@H](O)[C@H]3O)ccc2Cl)cc1 [Dapagliflozin, dapagliflozin]
albuminuria (KKAy mice [1]): 31.1 mg/dL | decrease in albuminuria compared to the negative control group (KKAy mice [1]): 39.5%

CN(C)C(=N)N=C(N)N [Metformin, metformin]
ACR (KKAy mice [3]; administration from severe stage (age 12 weeks), CycloZ 15 mg/kg, metformin 200 mg/kg oral daily, negative control 2,369): 2,952 mg/g | effect on alleviating ACR (result in words) (KKAy mice [3]; [6]): did not show a significant effect on alleviating ACR

N[C@@H](CC(=O)N1CCn2c(nnc2C(F)(F)F)C1)Cc1cc(F)c(F)cc1F [Sitagliptin, sitagliptin]
ACR reduced compared to the control group (KKAy mice [4]): ~24% | ACR (KKAy mice [4]; CycloZ 15 mg/kg, sitagliptin 10 mg/kg oral daily, negative control 6,379): 4,852 mg/g | ACR (KKAy mice [5]; administration from severe stage (age 12 weeks), CycloZ 15 mg/kg, sitagliptin 10 mg/kg oral daily, negative control 4,450): 2,301 mg/g | ACR decrease compared to the negative control group (KKAy mice [5]; [6]): 48%
